In PubChem BioAssay (NCI):
“And” between values parts separate entries of the source, which are not always exact repeats. Equal entries are not always repeated.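 Dose response: 5 concentrations. Exposure: 48 h. Format: 96-well plates. Endpoint: linear interpolation; highest concentration if not reached. At the GI50, growth is halved. TGI marks complete inhibition of growth.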

Key:
Test in all cases: inhibition of tumour cell growth, NCI panel, 48 h
[1] = test system: NCI-H460 lung
[2] = test system: NCI-H226 lung
[3] = test system: A549 NSCLC
[4] = test system: ACHN renal
[5] = test system: NCI-H23 lung
[6] = test system: EKVX NSCLC
[7] = test system: SW-620 colon
[8] = test system: TK-10 renal
[9] = test system: MDA-MB-435
[10] = test system: MCF7 breast

| SMILES | TGI [1] | TGI [2] | TGI [3] | TGI [4] | TGI [5] | TGI [6] | TGI [7] | TGI [8] | TGI [9] | TGI [10] | GI50 [1] | GI50 [2] | GI50 [3] | GI50 [4] | GI50 [5] | GI50 [6] | GI50 [7] | GI50 [8] | GI50 [9] | GI50 [10] |
| --- | --- | --- | --- | --- | --- | --- | --- | --- | --- | --- | --- | --- | --- | --- | --- | --- | --- | --- | --- | --- |
| O=C(O)CCSC(=O)Nc1cccc2ccccc12 | > 100 µM | > 100 µM | > 100 µM | > 100 µM | > 100 µM | > 100 µM | > 100 µM | > 100 µM |  |  |  |  |  |  |  |  |  |  |  |  |
| O=C(CC1(O)C(=O)Nc2ccccc21)c1ccc(Cl)cc1Cl (stereo not given) |  | > 100 µM | > 100 µM | > 100 µM | > 100 µM | > 100 µM | > 100 µM | > 100 µM |  |  |  |  |  |  |  |  |  |  |  |  |
| COc1c(C)c(OC)c(C(=O)CC(C)C)c(OC)c1C |  | > 100 µM | > 100 µM | > 100 µM | > 100 µM | > 100 µM | > 100 µM | > 100 µM | > 100 µM | > 100 µM |  |  |  |  |  |  |  |  |  |  |
| CCC[CH2][Sn]1([CH2]CCC)[O]CC[S]1 | 3.72 µM | 2.36 µM | 6.03 µM | 2.23 µM | 1.82 µM | 2.1 µM | 1.11 µM | 1.39 µM |  |  | 1.77 µM | 1.02 µM | 2.21 µM | 1.03 µM | 0.398 µM | 0.749 µM | 0.268 µM | 0.508 µM |  |  |
| O=C1NC2(CCCC2)C2CCCCC12O (stereo not given) | > 100 µM |  | > 100 µM | > 100 µM | > 100 µM | > 100 µM | > 100 µM | > 100 µM |  |  |  |  |  |  |  |  |  |  |  |  |
| C[C@]12CCc3nonc3C1CC[C@@H]1C2CC[C@@]2(C)C1CC[C@@H]2O (stereo not given in full) | > 100 µM | > 100 µM | > 100 µM | > 100 µM | > 100 µM | > 100 µM | > 100 µM | > 100 µM |  |  |  |  |  |  |  |  |  |  |  |  |
| CC(=O)NCc1c(C(N)=O)ncn1Cc1ccccc1 | > 100 µM |  | > 100 µM | > 100 µM | > 100 µM | > 100 µM | > 100 µM | > 100 µM |  |  |  |  |  |  |  |  |  |  |  |  |
| N#CC(C(=O)CCC(=O)Nc1cccc(C(F)(F)F)c1)c1ccccc1 (stereo not given) | > 100 µM | > 100 µM | > 100 µM | > 100 µM | > 100 µM | > 100 µM | > 100 µM | > 100 µM |  |  |  |  |  |  |  |  |  |  |  |  |
| COc1ccccc1NC(=O)C1=C(C)NC(C)=C(C(=O)Nc2ccccc2OC)C1c1ccccc1Cl | > 100 µM | > 100 µM | > 100 µM | > 100 µM | > 100 µM | > 100 µM | > 100 µM | > 100 µM |  |  |  |  |  |  |  |  |  |  |  |  |
| CC(C)CCCCCCCCCCCCC(=O)NCC(=O)NC1C(C)OC(Nc2ncnc3nc[nH]c23)C(O)C1O (stereo not given) | 0.00577 µM and < 0.0111 µM |  | 0.472 µM and 0.19 µM | 0.00666 µM | 0.172 µM |  | 0.146 µM and 0.0233 µM | 0.0096 µM and 0.0809 µM |  | 0.264 µM |  |  | 0.00324 µM | 0.00153 µM | 0.00875 µM | 0.0251 µM | 0.00218 µM |  |  |  |
| CCCCC(OC(=O)c1ccc(N)cc1)C(=O)Nc1nc(CC(=O)OCC)cs1 (stereo not given) |  | > 100 µM | > 100 µM | > 100 µM |  | > 100 µM | > 100 µM | > 100 µM | > 100 µM | > 100 µM |  | 43.5 µM | 37.5 µM | 38.8 µM |  | 38 µM | 48 µM | 40 µM | 35 µM | 34.8 µM |
| CC(=O)[CH-]C(C)=O.CC(=O)[CH-]C(C)=O.[Cl-].[O]=[V] | > 100 µM | 76.1 µM | > 100 µM |  | 34.5 µM | > 100 µM | > 100 µM | 60.6 µM |  |  | 46.2 µM | 27.5 µM | 36.3 µM |  | 14.2 µM | 30.3 µM | 38.9 µM | 24.5 µM |  |  |
| O=C1c2cc3c(cc2-c2c1c1ccc(F)cc1c(=O)n2C[C@H](O)[C@H](O)[C@H](O)CO)OCO3 |  |  |  |  | 0.482 µM | 4.63 µM | > 100 µM | 0.873 µM | 0.409 µM | 0.215 µM |  |  |  |  | 0.129 µM | 0.357 µM | 0.0967 µM | 0.248 µM | 0.174 µM | 0.0259 µM |
| O=C(C=Nc1ccccc1S)c1ccco1 | > 100 µM |  | 22.4 µM | > 100 µM | 15.6 µM | 30.2 µM | 32.8 µM | 33.4 µM |  |  | > 100 µM |  |  | > 100 µM |  |  |  |  |  |  |
| CC[O-].CC[O-].O=C([CH-]C(=O)c1ccccc1)CCCCCCC(=O)[CH-]C(=O)c1ccccc1.[Ti+4] | > 100 µM |  | > 100 µM | > 100 µM | > 100 µM | > 100 µM | > 100 µM | > 100 µM |  |  | > 100 µM |  | > 100 µM | > 100 µM | > 100 µM | > 100 µM | > 100 µM | > 100 µM |  |  |
